Results on 16 compounds are retold here after BindingDB's records for patent US12384776 (Foghorn Therapeutics, 2025).

In the experiment the target is T1, Bromodomain-containing protein 9 (Human, UniProt Q9H8M2).
T1 sequence (Q9H8M2 whole entry): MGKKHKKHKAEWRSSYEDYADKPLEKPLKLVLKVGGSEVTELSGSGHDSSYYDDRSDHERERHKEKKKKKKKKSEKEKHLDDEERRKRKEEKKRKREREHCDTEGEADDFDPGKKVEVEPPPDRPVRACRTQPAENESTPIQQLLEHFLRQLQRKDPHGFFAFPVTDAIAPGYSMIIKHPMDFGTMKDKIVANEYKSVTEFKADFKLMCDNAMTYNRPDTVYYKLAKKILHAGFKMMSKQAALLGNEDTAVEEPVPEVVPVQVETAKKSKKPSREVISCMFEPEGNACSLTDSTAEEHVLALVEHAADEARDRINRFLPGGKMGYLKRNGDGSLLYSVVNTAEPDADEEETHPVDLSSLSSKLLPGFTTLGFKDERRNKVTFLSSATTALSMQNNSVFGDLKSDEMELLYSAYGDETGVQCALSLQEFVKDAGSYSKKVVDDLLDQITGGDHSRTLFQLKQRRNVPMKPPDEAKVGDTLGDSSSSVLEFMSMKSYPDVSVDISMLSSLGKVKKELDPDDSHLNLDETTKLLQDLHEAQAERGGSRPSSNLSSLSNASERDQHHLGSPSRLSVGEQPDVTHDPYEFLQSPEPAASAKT
The experiment is described as follows: SYO1 BRD9 NanoLuc Degradation Assay. To be noted: read-out: IC50 (the source's name). The protocol: A stable SYO-1 cell line expressing 3×FLAG-NLuc-BRD9 was generated. On day 0 cells were seeded in 30 μL media into each well of 384-well cell culture plates. The seeding density was 8000 cells/well. On day 1, cells were treated with 30 nL DMSO or 30 nL of 3-fold serially DMSO-diluted compounds (10 points in duplicates with 1 μM as final top dose). Subsequently plates were incubated for 6 hours in a standard tissue culture incubator and equilibrated at room temperature for 15 minutes. Nanoluciferase activity was measured by adding 15 μL of freshly prepared Nano-Glo Luciferase Assay Reagent (Promega N1130), shaking the plates for 10 minutes and reading the bioluminescence using an EnVision reader.
As to `CNC(=O)N1CCc2c(-c3cc(OC)c(CN4CCC5(CC4)CC(C#Cc4ccc6c(c4)C(=O)N(C4CCC(=O)NC4=O)C6=O)C5)c(OC)c3)cn(C)c(=O)c2C1` (stereo unspecified) [US12384776, Compound D134], the DC50 is < 10 nM.
As for `CNC(=O)N1CCc2c(-c3cc(OC)c(CN4CCN(CCC5CCN(c6ccc7c(c6)C(=O)N(C6CCC(=O)NC6=O)C7=O)CC5)C(C)(C)C4)c(OC)c3)cn(C)c(=O)c2C1` (stereo unspecified) [US12384776, Compound D101], the figure is < 10 nM; as for `CNC(=O)N1CCc2c(-c3cc(OC)c(CN4CC5(CCN(c6ccc7c(c6)C(=O)N(C6CCC(=O)NC6=O)C7=O)CC5)C4)c(OC)c3)cn(C)c(=O)c2C1` (stereo unspecified) [US12384776, Compound D161], < 10 nM.
Regarding `CNC(=O)N1CCc2c(-c3cc(OC)c(CN4CCN(C5CN(c6ccc7c(c6)C(=O)N(C6CCC(=O)NC6=O)C7=O)C5)CC4)c(OC)c3)cn(C)c(=O)c2C1` (stereo unspecified) [US12384776, Compound D164], the DC50 is < 10 nM.
As for `CNC(=O)N1CCc2c(-c3cc(OC)c(CN4CCC5(C4)CN(c4ccc6c(c4)C(=O)N(C4CCC(=O)NC4=O)C6=O)C5)c(OC)c3)cn(C)c(=O)c2C1` (stereo unspecified) [US12384776, Compound D165], the DC50 is < 10 nM.
With `CNC(=O)N1CCc2c(-c3cc(OC)c(CN4CC5(CC(C#Cc6ccc7c(c6)C(=O)N(C6CCC(=O)NC6=O)C7=O)C5)C4)c(OC)c3)cn(C)c(=O)c2C1` (stereo unspecified) [US12384776, Compound D133] the figure was < 10 nM; with `COc1cc(-c2cn(C)c(=O)c3c2CCN(C(=O)NC2CCC24CCN(CCOc2ccc5c(c2)C(=O)N(C2CCC(=O)NC2=O)C5=O)CC4)C3)cc(OC)c1CN(C)C` (stereo unspecified) [US12384776, Compound D239], > 10 nM.
As for `CNC(=O)N1CCc2c(-c3cc(OC)c(CN4CCC5(CC4)CN(c4ccc6c(c4)C(=O)N(C4CCC(=O)NC4=O)C6=O)C5)c(OC)c3)cn(C)c(=O)c2C1` (stereo unspecified) [US12384776, Compound D159], the figure is < 10 nM; as for `CNC(=O)N1CCc2c(-c3cc(OC)c(CN4CCC5CN(c6ccc7c(c6)C(=O)N(C6CCC(=O)NC6=O)C7=O)C5C4)c(OC)c3)cn(C)c(=O)c2C1` (stereo unspecified) [US12384776, Compound D166], < 10 nM; as for `CNC(=O)N1CCc2c(-c3cc(OC)c(CN4CCC5(CC(C#Cc6ccc7c(c6)C(=O)N(C6CCC(=O)NC6=O)C7=O)C5)C4)c(OC)c3)cn(C)c(=O)c2C1` (stereo unspecified) [US12384776, Compound D135], < 10 nM.
Turning to `CNC(=O)N1CCc2c(-c3cc(OC)c(CN4CCC5(CC4)CCN(c4ccc6c(c4)C(=O)N(C4CCC(=O)NC4=O)C6=O)C5)c(OC)c3)cn(C)c(=O)c2C1` (stereo unspecified) [US12384776, Compound D163], the DC50 was < 10 nM.
As for `CNC(=O)N1CCc2c(-c3cc(OC)c(CN4CCC5(CCN(c6ccc7c(c6)C(=O)N(C6CCC(=O)NC6=O)C7=O)C5)C4)c(OC)c3)cn(C)c(=O)c2C1` (stereo unspecified) [US12384776, Compound D162], the DC50 was < 10 nM.
Regarding `COc1cc(-c2cn(C)c(=O)c3c2CCN(C(=O)NCCOCCOCCNc2cccc4c2C(=O)N(C2CCC(=O)NC2=O)C4=O)C3)cc(OC)c1CN(C)C` (stereo unspecified) [US12384776, Compound D12], the DC50 is > 10 nM.
As for `CNC(=O)N1CCc2c(-c3cc(OC)c(CN4CCN(CCC5CCN(c6ccc7c(c6)C(=O)N(C6CCC(=O)NC6=O)C7=O)CC5)CC4C(F)(F)F)c(OC)c3)cn(C)c(=O)c2C1` (stereo unspecified) [US12384776, Compound D97], the DC50 was < 10 nM.
As for `CNC(=O)N1CCc2c(-c3cc(OC)c(CN4CCC5C4CN5c4ccc5c(c4)C(=O)N(C4CCC(=O)NC4=O)C5=O)c(OC)c3)cn(C)c(=O)c2C1` (stereo unspecified) [US12384776, Compound D157], the figure is < 10 nM; as for `CNC(=O)N1C=Cc2c(-c3cc(OC)c(CN4CCC(CN5CCC6(CC5)CN(c5ccc7c(c5)C(=O)N(C5CCC(=O)NC5=O)C7)C6)C(F)(F)C4)c(OC)c3)cn(C)c(=O)c2C1` (stereo unspecified) [US12384776, Compound D335], < 10 nM.
